Experiments:
IMR-32 [1] = test: Inhibition of MCH-mediated calcium release in whole IMR32 cells at 10 uM by FLIPR assay; format: functional; conditions: Homo sapiens
Rattus norvegicus [2] = test: End-of-study drug concentration in inactin-anesthetized Sprague-Dawley rat brain; format: functional
Rattus norvegicus [3] = test: End-of-study drug concentration in inactin-anesthetized Sprague-Dawley rat plasma; format: functional
IMR-32 [4] = test: Inhibition of MCH-mediated calcium release in whole IMR32 cells by FLIPR assay; format: functional, cell-based; conditions: Homo sapiens
[5] = target: Melanin-concentrating hormone receptor 1 (Homo sapiens, UniProt Q99705); test: Displacement of [125I]MCH from MCHr1 expressed in IMR32 (I3.4.2) cells; format: cell-based
[6] = AUC in DIO mice plasma at 10 mg/kg, po; format: ADME, organism-based; design: dose 10 mg/kg, route oral; conditions: mouse
Mus musculus = test: AUC in DIO mice brain at 10 mg/kg, po; format: ADME, organism-based; design: dose 10 mg/kg, route oral; conditions: in vivo

Melanin-concentrating hormone receptor 1, sequence (Q99705 whole entry): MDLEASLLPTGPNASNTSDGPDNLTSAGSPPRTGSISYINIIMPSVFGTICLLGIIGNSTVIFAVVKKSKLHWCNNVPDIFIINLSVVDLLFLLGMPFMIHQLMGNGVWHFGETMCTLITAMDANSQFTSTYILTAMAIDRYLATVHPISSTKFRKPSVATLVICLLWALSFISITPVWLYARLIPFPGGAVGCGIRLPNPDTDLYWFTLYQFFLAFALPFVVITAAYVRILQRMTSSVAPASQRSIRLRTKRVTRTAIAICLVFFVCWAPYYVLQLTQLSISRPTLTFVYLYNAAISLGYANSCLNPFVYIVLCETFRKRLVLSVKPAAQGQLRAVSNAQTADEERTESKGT

SMILES | inhibition at 10 µM (IMR-32 [1]) | Activity (Rattus norvegicus [2]) | Activity (Rattus norvegicus [3]) | IC50 (IMR-32 [4]) | IC50 [5] | AUC [6] | AUC (Mus musculus)
O=C(Cc1ccc(OCc2ccccc2)cc1)Nc1ccc2c(cnn2CCN2CCCC2)c1 | 14% | 46 µg/g | 53 µM |  |  |  | 
O=C(Nc1ccc(Oc2ccccc2)cc1)Nc1ccc2nn(CCN3CCCC3)cc2c1 |  | 6 µg/g | 558 µM | 314 nM | 46 nM |  | 
O=C(Nc1ccc(Oc2ccccc2)cc1)Nc1ccc2c(cnn2CCN2CCCCC2)c1 |  | 13 µg/g | 77 µM | 136 nM | 5 nM |  | 
O=C(Nc1ccc(Oc2ccccc2)cc1)Nc1ccc2nn(CCN3CC[C@H](O)C3)cc2c1 |  | 3 µg/g | 201 µM | 214 nM | 57 nM | 1020 ng·h/mL | 0 µg·h/g
COc1ccc2c(=O)cc(C(=O)NC3CCN(Cc4ccc5c(c4)OCO5)CC3)oc2c1 |  | 158 µg/g | 66 µM | 73 nM | 6 nM | 18700 ng·h/mL | 4.4 µg·h/g
COc1ccc2nccc(NC3CCN(Cc4ccc5c(c4)OCO5)CC3)c2c1 |  |  |  | 74 nM | 10 nM |  | 
O=C(NC1CCN(Cc2ccc3c(c2)OCO3)CC1)c1cc(=O)c2cc(Cl)c(Cl)cc2o1 |  | 63 µg/g | 42 µM | 83 nM | 3 nM |  | 
O=C(NC1CCN(Cc2ccc3c(c2)OCO3)CC1)c1cc(Cl)ccc1NCc1nccs1 |  |  | 91 µM | 53 nM |  |  | 
CC(C)OCCNc1ncc(Cl)cc1C(=O)NC1CCCN(Cc2ccc3c(c2)OCO3)C1 (configuration not stated) | 30% | 138 µg/g | 61 µM |  |  |  | 
COc1ccc(CC(=O)Nc2ccc3cnn(CCN4CCCC4)c3c2)cc1 | 14% | 6 µg/g | 39 µM | > 10000 nM | 3630 nM |  | 
O=C(Nc1ccc(Oc2ccccc2)cc1)Nc1ccc2c(cnn2CCN2CCCC2)c1 |  | 10 µg/g | 88 µM |  |  |  | 
O=C(Cc1ccc(OCc2ccccc2)cc1)Nc1ccc2cnn(CCN3CCCC3)c2c1 |  | 10 µg/g | 23 µM | 11 nM |  |  | 
CC(C)OCCNc1ncc(Cl)cc1C(=O)NC1CCN(Cc2ccc3c(c2)OCO3)CC1 |  | 88 µg/g | 44 µM | 25 nM |  |  | 
O=C(Cc1ccc(OCc2ccccc2)cc1)Nc1cccc2c1cnn2CCN1CCCC1 |  |  | 4 µM | 71 nM |  |  | 
COc1ccc2oc(O)c/c(=N\C3CCN(Cc4ccc5c(c4)OCO5)CC3)c2c1 |  | 71 µg/g | 272 µM | 11 nM | 2 nM |  | 
Clc1ccc2[nH]nc(NC3CCN(Cc4ccc5c(c4)OCO5)CC3)c2c1 |  | 30 µg/g | 22 µM | 376 nM | 16 nM |  | 
O=C(Cc1ccc(Oc2ccccc2)cc1)Nc1ccc2c(cnn2CCN2CCCC2)c1 |  |  | 2 µM | 309 nM | 78 nM |  | 
O=C(Nc1ccc(Oc2ccccc2)cc1)Nc1ccc2c(cnn2CCN2CCCCCC2)c1 |  |  |  | 103 nM | 4 nM |  | 
